Where two headings read alike, the source gives them in different places.
Experiments:
Assay type in all cases: cell-based
[1] = test system: MV4-11 cells; assay: Cell viability assay (CellTiter-Glo, CTG protocol), MV4-11; conditions: Homo sapiens, MV4-11 (MCL-1 dependent AML line), 24 hours incubation, 1% FBS, read-out: Average pCC50 by molecule MV4-11 (converted)
Description: (§1) The effect of various compounds of the invention on the viability of MV4-11 and ARH-77 cell lines was investigated, using the CTG protocol described below.
(§2) MV4-11 cell lines are derived from acute myeloid leukaemia and it is described in the literature as a MCL-1 dependent cell line, as opposed to lymphoblast-like ARH-77 cell line, which is described as independent of MCL-1 (Tron A E et al. Nat Commun. 2018; 9: 5341; Caenepeel S et al. Cancer Discov. 2018 December; 8(12): 1582-1597).
(§3) Cells (MV4-11 or ARH-77) were seeded on […] in a growth medium with 1% FBS. Next, compound stocks were pre-diluted in DMSO and added directly to the cell culture media (final DMSO concentration: 0.5%). Compound concentrations used in this assay: 1/3 dilutions starting at 30 μM (9 to 12 points). After 24 hours of incubation, cell viability was evaluated using CellTiter-Gob® Luminescent Cell Viability Assay (Promega, cat #G7572). The luminescence signal was measured using a CLARIOstar Plus Multi-Mode Microplate Reader (574-590 nm).
(§4) Results were normalized to DMSO control. Collected data were analyzed using GraphPad Prism to calculate pCC50 values (i.e. the negative log of the CC50 value). CC50 (50% cytotoxic concentration) is the effective concentration of a cytotoxic compound, which produces 50% of the maximum possible cell death (i.e. the concentration of the compound which is required in order to reduce cell viability by 50%). CC50 is often used rather than IC50 in cell toxicity assays.

[2] = Cell viability assay (CellTiter-Glo, CTG protocol), ARH-77; conditions: human, ARH-77 cells (lymphoblast-like), ARH-77 (MCL-1 independent line), 24 hours incubation, 1% FBS, read-out: Average pCC50 by molecule ARH-77 (converted)
Description: as §1, §2, §3, §4

[3] = biological target: T1, CRBN (Homo sapiens, UniProt Q96SW2); assay: NanoBRET In-cell CRBN Target Engagement Assay (live and lytic mode), NanoLuc CRBN HEK293 cells
T1 construct: host or cells: HEK293 (NanoLuc CRBN HEK293 cells)
T1 sequence (Q96SW2 whole entry): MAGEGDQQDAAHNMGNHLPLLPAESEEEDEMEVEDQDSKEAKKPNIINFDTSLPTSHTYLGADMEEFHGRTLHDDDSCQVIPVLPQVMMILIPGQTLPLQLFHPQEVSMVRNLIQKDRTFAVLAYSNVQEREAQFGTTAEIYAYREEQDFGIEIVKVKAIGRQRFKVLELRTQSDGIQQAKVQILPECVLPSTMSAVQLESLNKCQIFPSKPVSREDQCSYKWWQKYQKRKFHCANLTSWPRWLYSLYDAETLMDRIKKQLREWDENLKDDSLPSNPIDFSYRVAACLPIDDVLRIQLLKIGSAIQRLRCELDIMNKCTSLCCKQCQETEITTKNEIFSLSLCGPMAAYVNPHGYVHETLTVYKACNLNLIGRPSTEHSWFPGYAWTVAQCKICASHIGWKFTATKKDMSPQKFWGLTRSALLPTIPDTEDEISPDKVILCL
Procedure: Commercially available, NanoBRET In-cell CRBN Target Engagement Assay (NanoBRET CRBN TE Assay), which uses NanoLuc CRBN HEK293 cells and NanoBRET In-cell CRBN Tracer was used (N2910, N2912, PROMEGA) to determine the cell membrane permeability of prodrugs of MCL-1 degraders.
The assay was run in 96-well plate format (cat. 3600, Corning). NanoLuc CRBN HEK293 cells were treated with CRBN Tracer and compounds. Briefly, prepared was cell suspension (0.17×10^6cells/ml) in Opti-MEM without phenol red (Life Technologies). The cells were treated with CRBN Tracer (20× concentrated, 5 μl/well. For the live mode: 0.8 μM and for the lytic: 0.17 μM final concentration) or DMSO vehicle control (20× concentrated, 5 μl/well). Such prepared cells were seeded into the wells of 96-well plate on top of compounds (100× concentrated, 1 μl/well; 11-point 2-fold dilution) pre-plated on them with the help of Echo 555 acoustic dispenser (Labcyte). For the lytic mode assay, Digitonin (0.05 mg/ml, 10× concentrated, 10 μl/well) was added additionally. In the live mode assay, the plate was incubated at 37° C., 5% CO2 for 2 hours, and then at room temperature for 15 minutes to cool down. In the lytic mode assay, there was no incubation. The 3×Complete NanoBRET reagent (50 μl/well) was prepared according to the manufacturer's recommendations, appropriately for live and lytic mode. The plate was incubated for 2 minutes at room temperature and the luminescence and fluorescence readings followed using CLARIOstar Multimode Plate Reader (donor emission RLU—450 nm; acceptor emission RFU—610 nm). RBA value is an indicator of cell membrane permeability (the lower, the better) is calculated from absolute pIC50 (the negative log of the absolute IC50 value when converted to molar) of the live mode assay (pIC50 Live) and the lytic mode assay (pIC50 Lytic).

[4] = live mode, intact cells, 2 hours at 37° C., read-out: pIC50 (live) (converted)
[5] = lytic mode, digitonin-lysed cells, no incubation, read-out: pIC50 (lytic) (converted)

Row | SMILES | CC50 [1] | CC50 at 24 h [2] | IC50 [3, 4] | IC50 [3, 5]
1 | CC(=O)OC(C)OC(=O)c1c(CCCOc2cccc3cc(F)ccc23)c2ccc(Cl)c(-c3c(C)nn(C)c3C)c2n1CCN1CCN(C(=O)COc2cccc3c2CN(C2CCC(=O)NC2=O)C3=O)CC1 (stereo not drawn) [Compound 75, 1-Acetoxyethyl 6-chloro-1-(2-(4-(2-((2-(2,6-dioxopiperidin-3-yl)-1-oxoisoindolin-4-yl)oxy)acetyl)piperazin-1-yl)ethyl)-3-(3-((6-fluoronaphthalen-1-yl)oxy)propyl)-7-(1,3,5-trimethyl-1H-pyrazol-4-yl)-1H-indole-2-carboxylate] | < 10 nM | > 31600 nM |  | 
2 | Cc1nn(C)c(C)c1-c1c(Cl)ccc2c(CCCOc3cccc4cc(F)ccc34)c(C(=O)OCOC(=O)C(C)(C)C)n(CCN3CCC(CN4CCN(c5ccc6c(c5)CN([C@H]5CCC(=O)NC5=O)C6=O)CC4)CC3)c12 [Compound 71, (Pivaloyloxy)methyl (S)-6-chloro-1-(2-(4-((4-(2-(2,6-dioxopiperidin-3-yl)-1-oxoisoindolin-5-yl)piperazin-1-yl)methyl)piperidin-1-yl)ethyl)-3-(3-((6-fluoronaphthalen-1-yl)oxy)propyl)-7-(1,3,5-trimethyl-1H-pyrazol-4-yl)-1H-indole-2-carboxylate] | < 100 nM | > 10000 nM |  | 
3 | Cc1nn(C)c(C)c1-c1c(Cl)ccc2c(CCCOc3cccc4cc(F)ccc34)c(C(=O)OCOC(=O)C(C)(C)C)n(CCN3CCN(C(=O)COc4ccc5c(c4)n(C)c(=O)n5C4CCC(=O)NC4=O)CC3)c12 (stereo not drawn) [Compound 74, (Pivaloyloxy)methyl 6-chloro-1-(2-(4-(2-((1-(2,6-dioxopiperidin-3-yl)-3-methyl-2-oxo-2,3-dihydro-1H-benzo[d]imidazol-5-yl)oxy)acetyl)piperazin-1-yl)ethyl)-3-(3-((6-fluoronaphthalen-1-yl)oxy)propyl)-7-(1,3,5-trimethyl-1H-pyrazol-4-yl)-1H-indole-2-carboxylate] | < 3.16 nM | > 1000 nM | 12.6 nM | 316 nM
4 | Cc1nn(C)c(C)c1-c1c(Cl)ccc2c(CCCOc3cccc4cc(F)ccc34)c(C(=O)OCOC(=O)CCO)n(CCN3CCN(C(=O)COc4cccc5c4CN(C4CCC(=O)NC4=O)C5=O)CC3)c12 (stereo not drawn) [Compound 43] | < 3.16 nM | > 3160 nM | 39.8 nM | 79.4 nM
5 | Cc1nn(C)c(C)c1-c1c(Cl)ccc2c(CCCOc3cccc4cc(F)ccc34)c(C(=O)OC(C)OC(=O)OC(C)C)n(CCN3CCN(C(=O)COc4cccc5c4CN(C4CCC(=O)NC4=O)C5=O)CC3)c12 (stereo not drawn) [Compound 99, 1-{[(Propan-2-yloxy)carbonyl]oxy}ethyl 6-chloro-1-{2-[4-(2-{[2-(2,6-dioxopiperidin-3-yl)-1-oxo-2,3-dihydro-1H-isoindol-4-yl]oxy}acetyl)piperazin-1-yl]ethyl}-3-{3-[(6-fluoronaphthalen-1-yl)oxy]propyl}-7-(1,3,5-trimethyl-1H-pyrazol-4-yl)-1H-indole-2-carboxylate] | < 31.6 nM | > 31600 nM |  | 
6 | Cc1nn(C)c(C)c1-c1c(Cl)ccc2c(CCCOc3cccc4cc(F)ccc34)c(C(=O)OCCN3CCN(C)CC3)n(CCN3CCN(C(=O)COc4cccc5c4CN(C4CCC(=O)NC4=O)C5=O)CC3)c12 (stereo not drawn) [Compound 133, 2-(4-Methylpiperazin-1-yl)ethyl 6-chloro-1-(2-(4-(2-((2-(2,6-dioxopiperidin-3-yl)-1-oxoisoindolin-4-yl)oxy)acetyl)piperazin-1-yl)ethyl)-3-(3-((6-fluoronaphthalen-1-yl)oxy)propyl)-7-(1,3,5-trimethyl-1H-pyrazol-4-yl)-1H-indole-2-carboxylate] |  |  | 398 nM | 251 nM
7 | Cc1nn(C)c(C)c1-c1c(Cl)ccc2c(CCCOc3cccc4cc(F)ccc34)c(C(=O)OCOC(=O)C3CCNCC3)n(CCN3CCN(C(=O)COc4cccc5c4CN(C4CCC(=O)NC4=O)C5=O)CC3)c12 (stereo not drawn) [Compound 55, ((Piperidine-4-carbonyl)oxy)methyl 6-chloro-1-(2-(4-(2-((2-(2,6-dioxopiperidin-3-yl)-1-oxoisoindolin-4-yl)oxy)acetyl)piperazin-1-yl)ethyl)-3-(3-((6-fluoronaphthalen-1-yl)oxy)propyl)-7-(1,3,5-trimethyl-1H-pyrazol-4-yl)-1H-indole-2-carboxylate] | < 100 nM | > 10000 nM |  | 
8 | Cc1nn(C)c(C)c1-c1c(Cl)ccc2c(CCCOc3cccc4cc(F)ccc34)c(C(=O)OCOC(=O)C(C)(C)C)n(CCN3CCN(C(=O)COc4cccc5c4n(C)c(=O)n5C4CCC(=O)NC4=O)CC3)c12 (stereo not drawn) [Compound 73, (Pivaloyloxy)methyl 6-chloro-1-(2-(4-(2-((1-(2,6-dioxopiperidin-3-yl)-3-methyl-2-oxo-2,3-dihydro-1H-benzo[d]imidazol-4-yl)oxy)acetyl)piperazin-1-yl)ethyl)-3-(3-((6-fluoronaphthalen-1-yl)oxy)propyl)-7-(1,3,5-trimethyl-1H-pyrazol-4-yl)-1H-indole-2-carboxylate] | < 3.16 nM | > 1000 nM | 6.31 nM | 398 nM
9 | Cc1nn(C)c(C)c1-c1c(Cl)ccc2c(CCCOc3cccc4cc(F)ccc34)c(C(=O)OC(C)OC(=O)OC3CCCCC3)n(CCN3CCN(C(=O)COc4cccc5c4CN(C4CCC(=O)NC4=O)C5=O)CC3)c12 (stereo not drawn) [Compound 100, 1-(((Cyclohexyloxy)carbonyl)oxy)ethyl 6-chloro-1-(2-(4-(2-((2-(2,6-dioxopiperidin-3-yl)-1-oxoisoindolin-4-yl)oxy)acetyl)piperazin-1-yl)ethyl)-3-(3-((6-fluoronaphthalen-1-yl)oxy)propyl)-7-(1,3,5-trimethyl-1H-pyrazol-4-yl)-1H-indole-2-carboxylate] | < 31.6 nM | > 31600 nM |  | 
10 | Cc1nn(C)c(C)c1-c1c(Cl)ccc2c(CCCOc3cccc4cc(F)ccc34)c(C(=O)OCCS(C)(=O)=O)n(CCN3CCN(C(=O)COc4cccc5c4CN(C4CCC(=O)NC4=O)C5=O)CC3)c12 (stereo not drawn) [Compound 124, 2-(Methylsulfonyl)ethyl 6-chloro-1-(2-(4-(2-((2-(2,6-dioxopiperidin-3-yl)-1-oxoisoindolin-4-yl)oxy)acetyl)piperazin-1-yl)ethyl)-3-(3-((6-fluoronaphthalen-1-yl)oxy)propyl)-7-(1,3,5-trimethyl-1H-pyrazol-4-yl)-1H-indole-2-carboxylate] | < 1000 nM | > 31600 nM |  | 
11 | Cc1nn(C)c(C)c1-c1c(Cl)ccc2c(CCCOc3cccc4cc(F)ccc34)c(C(=O)OCCN3CCOCC3)n(CCN3CCN(C(=O)COc4cccc5c4CN(C4CCC(=O)NC4=O)C5=O)CC3)c12 (stereo not drawn) [Compound 129, 2-Morpholinoethyl 6-chloro-1-(2-(4-(2-((2-(2,6-dioxopiperidin-3-yl)-1-oxoisoindolin-4-yl)oxy)acetyl)piperazin-1-yl)ethyl)-3-(3-((6-fluoronaphthalen-1-yl)oxy)propyl)-7-(1,3,5-trimethyl-1H-pyrazol-4-yl)-1H-indole-2-carboxylate] |  |  | 316 nM | 355 nM
12 | COCCOCC(=O)OCOC(=O)c1c(CCCOc2cccc3cc(F)ccc23)c2ccc(Cl)c(-c3c(C)nn(C)c3C)c2n1CCN1CCN(C(=O)COc2cccc3c2CN(C2CCC(=O)NC2=O)C3=O)CC1 (stereo not drawn) [Compound 57, (2-(2-Methoxyethoxy)acetoxy)methyl 6-chloro-1-(2-(4-(2-((2-(2,6-dioxopiperidin-3-yl)-1-oxoisoindolin-4-yl)oxy)acetyl)piperazin-1-yl)ethyl)-3-(3-((6-fluoronaphthalen-1-yl)oxy)propyl)-7-(1,3,5-trimethyl-1H-pyrazol-4-yl)-1H-indole-2-carboxylate] | < 10 nM | > 10000 nM |  | 

Reference: US20260241013A1, “TARGETED PROTEIN DEGRADATION USING PRODRUGS OF BIFUNCTIONAL COMPOUNDS THAT BIND UBIQUITIN LIGASE AND A TARGET MCL-1 PROTEIN” (Captor Therapeutics S.A., priority 2022, published 2026)
